Measurements published in patent US10996170B2, “Device and method for imaging shortwave infrared fluorescence” (Massachusetts Institute of Technology, priority 2016, dated 2021).

Test system: liver
Test: SWIR imaging of hepatobiliary clearance in vivo
Conditions: 1.7 mg/kg intravenously; mouse
Method: When injected into a living system, indocyanine green is metabolized by the liver and excreted by the liver and bile ducts by a process called hepatobiliary clearance. This process was observed, noninvasively, by injecting a solution of indocyanine green intravenously into a mouse and using an SWIR imaging system as described herein to observe the fluorescence of indocyanine green. The dye was injected at a dose of 1.7 mg/kg which is below the maximum recommended dose of indocyanine green in humans. […] Despite the fact that 1500 nm is far from the peak emission of indocyanine green, there is sufficient emission intensity from the tail of the emission peak in this wavelength region to obtain a SWIR fluorescence image. Separately, hepatobiliary excretion of ICG into the small intestine in a mouse was also imaged using a near video rate imaging of 19.7 frames per second using a 1200 nm long-pass filter, which enabled capturing the peristaltic movements of the small intestine. Although the frame rate was slower, 2.0 frames per second, it was possible to image the ICG clearance using a 1500 nm long-pass filter, capturing wavelengths between roughly 1500 and 1620 nm.

`CC1(C)C(/C=C/C=C/C=C/C=C2\N(CCCCS(=O)(=O)O)c3ccc4ccccc4c3C2(C)C)=[N+](CCCCS(=O)(=O)[O-])c2ccc3ccccc3c21` [ICG, indocyanine green] was tested, and the “tissue distribution observed by SWIR fluorescence” value was “Accumulation of indocyanine green in the liver”.
